Results published in patent US10100088B2, “Glycopeptide derivatives for the preservation and protection of biological materials and microorganisms” (TFCHEM, priority 2014, dated 2018).
Where two headings read alike, the source gives them in different places.

Tests used:
[1] = test system: human neonatal skin fibroblasts; conditions: for Lysis following bacterial stress at 48 h (OD490 nm): LDH release
Procedure: The medium was changed every two days by 37° C. preheated fresh medium.

[2] = test system: human neonatal skin fibroblasts (CCD-27SK, ATCC CRL-1475); test: Starvation (serum deprivation) stress, neutral red uptake viability; assay type: cell-based
Procedure: Induced stresses were performed as follow: Starvation
The neutral red uptake assay was used for the determination of cell viability. This assay is based on the ability of viable cells to incorporate and bind the supravital dye neutral red in its lysosomes. So, only the viable cells are dyed. At different times after the stress assay (T0), the plates were incubated with neutral red solution for 3.5 hours. The cells are subsequently washed, the dye is extracted in each well and the absorbance is read using a spectrophotometer.
For sampling, 1 mL of DMEM (without phenol red indicator) with neutral red (OD=0.110) was added to the cells for 3.5 hours (37° C., 10% CO2). After incubation, the medium was removed, two washes of PBS were realized and 1 mL of extraction solution (absolute ethanol 49%, ultrapure water 49%, glacial acetic acid 2%) was added. Plates were placed 15 minutes on rotary shaker in the dark before reading OD at 540 nm.
The OD540 nm average value of positive control was considered as 100% of viability.
The percentage of viability for each assay was calculated as follow: % viability assay=(OD540 nm of tested solution−blank)*100/(OD540 nm of positive control−blank).

[3] = Comparative stability towards basic conditions (NaOD in D2O), 1H NMR; assay type: physicochemical
Procedure: In a first set of experiments (experiments 1 to 7 in table 9), X (10 mg, 1.72 10^−2 mmol) was reacted with 2 to 8 equivalents of NaOD in a total volume of 355 μL of deuterium oxide ([X]=4.8 10^−2 mmol·mL^−1) during 2 h 30 before being acidified with 1M DCl in D2O. To be sure that all compounds in solution are in their acidic form, the equivalents of DCl are adjusted to 3 more equivalents of DCl than the amount required to neutralize the solution (nDCl=nNaOD+3). The volume was adjusted to 544 μL with deuterium oxide.
In a second set of experiments (experiments 8 to 14 in table 9), 17 (10 mg, 1.66 10^−2 mmol) was reacted with 2 to 8 equivalents of NaOD in a total volume of 343 μL of deuterium oxide ([17]=4.8 10^−2 mmol·mL^−1) during 2 h 30 before being acidified with 1M DCl in D2O. To be sure that all compounds in solution are in their acidic form, the equivalents of DCl are adjusted to 3 more equivalents of DCl than the amount required to neutralize the solution (nDCl=nNaOD+3). The volume was adjusted to 526 μL with deuterium oxide.
^1H NMR analyses were performed on each experiment. It is why experiments were realized in deuterium oxide and using 1M NaOD in D2O as base and 1M DCl in D2O as acid.
^1H NMR allows indeed the determination of the amount of compound X1 formed, by comparison between the integration corresponding to the methylene group of the lysine side chain connected to the nitrogen atom in X (CH2NGP) (3.3 ppm) and the integrationof the same methylene group in X1 (CH2Lys hydrolyzed) (3.0 ppm).
To confirm the structure of compounds X1 and X2, resulting from hydrolysis of X, the following experiment was realized, in which X (10 mg, 1.72 10^−2 mmol) was reacted with 8 equivalents of NaOD in a total volume of 355 μL of deuterium oxide ([X]=4.8 10^−2 mmol·mL^−1) during 3 days before being acidified with 1M DCl in D2O. In these conditions, almost the totality of compound X is hydrolyzed, the percentage of hydrolysis of compound X being 85% as determined by ^1H NMR as evidence in table 11.

## C[C@H](NC(=O)[C@H](C)NC(=O)[C@@H](N)CCCCNCC(F)(F)C1(O)O[C@H](CO)[C@H](O)[C@H](O)[C@H]1O)C(=O)O.Cl.Cl (stereo partly drawn) [Compound 17]
[1]; 5 mg/mL
  Lysis following bacterial stress at 48 h (OD490 nm): 0.333 ± 0.003 OD490 nm
[1]; 5 mg/ml to 15 mg/ml
  protective effect against bacterial stress (in words): protective effect on cells against bacterial stress
[1]; 10 mg/mL
  Lysis following bacterial stress at 48 h (OD490 nm): 0.293 ± 0.002 OD490 nm
[1]; 15 mg/mL
  Lysis following bacterial stress at 48 h (OD490 nm): 0.270 ± 0.005 OD490 nm
[2]; D 1 after serum deprivation, 5 mg/mL (Table 2)
  Percentage of viability: 75%
[2]; D 1 after serum deprivation, 10 mg/mL (Table 2)
  Percentage of viability: 71%
[2]; D 4 after serum deprivation, 5 mg/mL (Table 2)
  Percentage of viability: 54%
[2]; D 4 after serum deprivation, 10 mg/mL (Table 2)
  Percentage of viability: 61%
[2]; D4 after serum deprivation, 10 mg/mL (Table 4)
  Percentage of viability: 116%
[2]; D 7 after serum deprivation, 5 mg/mL (Table 2)
  Percentage of viability: 45%
[2]; D 7 after serum deprivation, 10 mg/mL (Table 2)
  Percentage of viability: 55%
[2]; starvation medium
  preservative/protective effect on skin fibroblasts (in words): significant preservative/protective effect
[3]; 2 eq NaOD, 2 h 30, D2O
  % hydrolyzed: 0%
[3]; 2 to 8 eq NaOD, 2 h 30, 1H NMR
  stability towards basic conditions (in words): absence of degradation
[3]; 3 eq NaOD, 2 h 30, D2O
  % hydrolyzed: 0%
[3]; 4 eq NaOD, 2 h 30, D2O
  % hydrolyzed: 0%
[3]; 5 eq NaOD, 2 h 30, D2O
  % hydrolyzed: 0%
[3]; 6 eq NaOD, 2 h 30, D2O
  % hydrolyzed: 0%
[3]; 7 eq NaOD, 2 h 30, D2O
  % hydrolyzed: 0%
[3]; 8 eq NaOD, 2 h 30, D2O
  % hydrolyzed: 0%
[3]; Control, 0 eq NaOD
  % hydrolyzed: 0%
